Test results taken from ChEMBL document CHEMBL1127843, “2-(3,4-Dichlorophenyl)-N-methyl-N-[(1S)-1-(3-isothiocyanatophenyl)-2-(1-pyrrolidinyl)ethyl]acetamide: an opioid receptor affinity label that produces selective and long-lasting kappa antagonism in mice” (J Med Chem, 1994).

System: Mus musculus
Experiment: Compound was evaluated for […] antagonist activity towards Mouse vas deferens(MVD)
Format: functional

Compound: CN(C(=O)Cc1ccc(Cl)c(Cl)c1)[C@H](CN1CCCC1)c1cccc(N=C=S)c1
- IC50: 0.0111 µM
